According to PubChem BioAssay AID276 (DTP/NCI, 2004):
Values joined by “and” are separate entries in the source; they are usually repeats but may differ in a detail not shown here. Equal values may be shown once. Toxic doses and inconclusive results are not listed. The calls were made as follows: active = survival T/C of 150% or more; inactive = T/C below 125% in these data.

System: B6C3F1 mice, Lewis lung carcinoma iv, survival T/C
Assay: NCI In Vivo Anticancer Drug Screen. Data for tumor model Lewis Lung Carcinoma (intravenous) in B6C3F1 mice
Conditions: endpoint: median survival time, schedule: Q01DX009 (ip), higher = longer survival
Outline: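 Read-out is survival, expressed as the treated-group measurement over the vehicle control-group measurement. Animals bore a transplantable tumor and were given compound.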

[1] = dose: 1.56 mg/kg/injection, vehicle: saline
[2] = dose: 3.12 mg/kg/injection, vehicle: saline
[3] = dose: 25.0 mg/kg/injection, vehicle: saline with Tween-80
[4] = dose: 50.0 mg/kg/injection, vehicle: saline with Tween-80
[5] = dose: 100.0 mg/kg/injection, vehicle: saline with Tween-80
[6] = dose: 12.5 mg/kg/injection, vehicle: saline with Tween-80
[7] = dose: 200.0 mg/kg/injection, vehicle: saline with Tween-80
[8] = dose: 25.0 mg/kg/injection, vehicle: saline
[9] = dose: 50.0 mg/kg/injection, vehicle: saline
[10] = dose: 400.0 mg/kg/injection, vehicle: saline with Tween-80

Measured: T/C

C[CH2][Sn]([CH2]C)([O]S(C)(=O)=O)[O]S(C)(=O)=O
inactive: dose: 0.09 mg/kg/injection, vehicle: saline 108 % of control | dose: 0.19 mg/kg/injection, vehicle: saline 97 % of control | dose: 0.39 mg/kg/injection, vehicle: saline 99 % of control | dose: 0.79 mg/kg/injection, vehicle: saline 109 % of control | [1] 93 % of control and 102 % of control | [2] 91 % of control and 87 % of control

O=C(CCCCCCC(=O)ON1C(=O)CCC1=O)ON1C(=O)CCC1=O
inactive: [3] 94 % of control | [4] 94 % of control | [5] 93 % of control

C1CC[N-]CC1.[Cl][Pt+2][Cl].[NH-]C1CC1
inactive: dose: 1.56 mg/kg/injection, vehicle: water 106 % of control | dose: 3.12 mg/kg/injection, vehicle: water 110 % of control | dose: 6.25 mg/kg/injection, vehicle: water 107 % of control and 109 % of control | dose: 12.5 mg/kg/injection, vehicle: water 102 % of control and 120 % of control

CC(/C=C/c1ccccc1)=Nc1ccccc1
inactive: [6] 109 % of control | [3] 101 % of control | [4] 97 % of control | [5] 99 % of control | [7] 105 % of control

Cc1ncc([N+](=O)[O-])n1CCSC(N)=O
inactive: dose: 12.5 mg/kg/injection, vehicle: saline 107 % of control | [8] 102 % of control | [9] 110 % of control | dose: 100.0 mg/kg/injection, vehicle: saline 95 % of control | dose: 200.0 mg/kg/injection, vehicle: saline 106 % of control | dose: 400.0 mg/kg/injection, vehicle: saline 97 % of control

O=C1CCCCC1C(=O)C(F)(F)F (configuration not stated)
inactive: dose: 12.5 mg/kg/injection, vehicle: saline + Tween-80 + alcohol 96 % of control | dose: 25.0 mg/kg/injection, vehicle: saline + Tween-80 + alcohol 111 % of control | dose: 50.0 mg/kg/injection, vehicle: saline + Tween-80 + alcohol 94 % of control

BrC[P+](CBr)(CBr)CBr
inactive: [6] 93 % of control | [3] 102 % of control | [4] 97 % of control | [5] 97 % of control | [7] 89 % of control | [10] 95 % of control

COc1cc(C(=O)N/N=C/c2cccc([N+](=O)[O-])c2)cc(OC)c1OC
inactive: [3] 97 % of control | [4] 98 % of control | [5] 105 % of control | [7] 93 % of control | [10] 101 % of control

[Cl][Pt+2][Cl].[NH-]C1CCC1.[NH2-]
inactive: dose: 0.75 mg/kg/injection, vehicle: saline 101 % of control | dose: 3.0 mg/kg/injection, vehicle: saline 111 % of control | dose: 6.0 mg/kg/injection, vehicle: saline 124 % of control

O=C(Nc1cc(Cl)ccc1C(=O)O)c1cccc(C[n+]2ccccc2)c1
inactive: [6] 107 % of control | [3] 102 % of control | [4] 92 % of control | [5] 95 % of control | [7] 100 % of control and 102 % of control

COc1cccc2c1C(=O)c1c(O)c3c(c(O)c1C2=O)CC(O)(C(=O)CO)CC3OC1CC(N)C(O)C(C)O1 (configuration not stated)
inactive: [1] 110 % of control | dose: 1.87 mg/kg/injection, vehicle: water 107 % of control | [2] 109 % of control | dose: 3.75 mg/kg/injection, vehicle: water 107 % of control | dose: 4.5 mg/kg/injection, vehicle: water 101 % of control | dose: 6.25 mg/kg/injection, vehicle: saline 123 % of control | dose: 7.5 mg/kg/injection, vehicle: water 109 % of control | dose: 9.0 mg/kg/injection, vehicle: water 112 % of control | dose: 15.0 mg/kg/injection, vehicle: water 119 % of control | dose: 18.0 mg/kg/injection, vehicle: water 123 % of control | [8] 119 % of control | [9] 90 % of control

N[C@@H](Cc1ccc(N(CCCl)CCCl)cc1)C(=O)O
inactive: dose: 0.5 mg/kg/injection, vehicle: saline 102 % of control | dose: 1.0 mg/kg/injection, vehicle: saline 95 % of control | dose: 2.0 mg/kg/injection, vehicle: saline 99 % of control

CO[C@H](/C(C)=C/C=C/C(C)=C/c1coc(C)n1)[C@H](C)[C@H]1C[C@@H](O)[C@@]2(C)O[C@H]2/C=C/[C@@H](C)[C@@H]2C[C@@H](CC(=O)O2)C[C@H]2O[C@@H]2C(=O)O1
inactive: dose: 20.0 micrograms/kg/injection, vehicle: Klucel (hydroxypropylcellulose) (HPC) 96 % of control | dose: 40.0 micrograms/kg/injection, vehicle: Klucel (hydroxypropylcellulose) (HPC) 103 % of control | dose: 80.0 micrograms/kg/injection, vehicle: Klucel (hydroxypropylcellulose) (HPC) 105 % of control

CCN(CC)Cc1cc2[nH]c3c4ccc(Cl)cc4ncc3c2cc1OC
inactive: [6] 97 % of control | [3] 101 % of control | [4] 101 % of control

COC1/C=C/O[C@@]2(C)Oc3c(C)c(O)c4c(O)c(cc(O)c4c3C2=O)NC(=O)/C(C)=C\C=C\[C@H](C)C(O)[C@@H](C)[C@@H](O)[C@@H](C)[C@H](OC(C)=O)[C@@H]1C (some centres not stated)
inactive: [6] 109 % of control | [3] 106 % of control | [4] 105 % of control | [5] 101 % of control | [7] 101 % of control | [10] 100 % of control

OC1OC2COC(c3ccccc3)OC2C(O)C1O (configuration not stated)
inactive: dose: 25.0 mg/kg/injection, vehicle: water 101 % of control | dose: 50.0 mg/kg/injection, vehicle: water 99 % of control | dose: 100.0 mg/kg/injection, vehicle: water 98 % of control | dose: 200.0 mg/kg/injection, vehicle: water 101 % of control | dose: 400.0 mg/kg/injection, vehicle: water 99 % of control | dose: 800.0 mg/kg/injection, vehicle: water 93 % of control

Cn1cnc([N+](=O)[O-])c1Sc1nc(N)nc2c1ncn2C1OC(CO)C(O)C1O (configuration not stated)
inactive: dose: 1.56 mg/kg/injection, vehicle: suspension in saline 105 % of control | dose: 3.12 mg/kg/injection, vehicle: suspension in saline 100 % of control | dose: 6.25 mg/kg/injection, vehicle: suspension in saline 105 % of control
